Measured values published in article PMC8312697, “Mechanistic Investigations Support Liver Safety of Ubrogepant” (Toxicological Sciences, 2020).
Read-outs that look alike come from different tables or passages of the source.

Assays:
[1] = Clinical study exposures; format: in vivo, human
[2] = target: T1, BSEP (Homo sapiens, UniProt O95342); experiment: BSEP vesicular transport inhibition assay; format: biochemical; settings: for Vmax of taurocholate: BSEP vesicle assay; for BSEP inhibition type: from Km and Vmax changes / model fit; for inhibition of BSEP-mediated probe substrate transport: vesicular transport inhibition assay; for alpha (mixed inhibition model): BSEP
T1 construct: Solvo Biotechnology (Szeged, Hungary), contract laboratory that ran the assay
Protocol: These assays were conducted by Solvo Biotechnology and overseen by DSSI.
(§1) To assess the functional impact of ubrogepant on the human ABC efflux transporters BSEP, MRP3, and MRP4, in vitro vesicular transport inhibition assays were conducted by Solvo Biotechnology (Szeged, Hungary). The ability of ubrogepant to inhibit the BSEP-mediated transport (and accumulation) of a probe substrate was tested at concentrations ranging from 0.04 – 30 μM, where the latter defined the upper limit of compound solubility in the BSEP assay buffer. For the MRP3 and MRP4 vesicle-based transporter assessments, ubrogepant concentrations of 0.1 to 70 μM were used. To assess the functional impact of ubrogepant on the human SLC (uptake) transporter NTCP, in vitro experiments were performed using HEK293 cells stably expressing NTCP. The ability of ubrogepant to inhibit NTCP-mediated uptake (and accumulation) of taurocholate was tested at concentrations ranging from 0.04 – 30 μM.
In the current project, additional assays were conducted to determine the Ki value and inhibition type for ubrogepant for BSEP-mediated bile acid transport. These assays were conducted by Solvo Biotechnology and overseen by DSSI. Briefly, BSEP inhibition studies were performed with multiple substrate concentrations (0.39 – 50 µM taurocholate) and multiple inhibitor concentrations (0.5 – 30 µM ubrogepant). Ki and inhibition type for ubrogepant were determined by fitting a mixed inhibition model to the untransformed data by nonlinear regression analysis. It was assumed that inhibition type for ubrogepant for other transporters (i.e., MRP3 and MRP4) was mixed with α= 5; this is a typical value for bile acid transporter inhibitors in the experience of the DSS team.
(§2) To assess the functional impact of MK-3207 on the human ABC efflux transporters BSEP, MRP3 and MRP4, in vitro vesicular transport inhibition assays were conducted by Solvo Biotechnology (Szeged, Hungary) and overseen by DSSI. BSEP transport was assessed in the presence of 0.5-30 µM MK-3207; MRP3 and MRP4 transport was assessed in the presence of 0.11-80 µM MK-3207. The upper limits of these ranges were determined by compound solubility in each assay buffer. NTCP transporter inhibition was assessed in NTCP-expressing HEK293 cells in the presence of 0.03 – 25 µM MK-3207.
In these experiments, taurocholic acid (TCA) transport was assessed at a range of MK-3207 concentrations (0.04 – 30 µM) as well as at a range of TCA media concentrations (0.39 – 50 µM). A Ki was then determined by fitting a mixed inhibition model to the inhibition data by nonlinear regression analysis.

[3] = target: T2, MRP3 (Homo sapiens, UniProt O15438); experiment: MRP3 vesicular transport inhibition assay; format: biochemical; settings: for inhibition of MRP3-mediated probe substrate transport: vesicular transport inhibition assay
T2 construct: Solvo Biotechnology (Szeged, Hungary), contract laboratory that ran the assay
Protocol: as §1, §2
IC50 values for MK-3207 were calculated for each of the transporters; these values were used as inputs into DILIsym. It was assumed that inhibition type for MK-3207 for MRP3 and MRP4 was mixed with α= 5; this is a typical value for bile acid transporter inhibitors in the experience of the DSS team.

[4] = system: HepG2 cells; experiment: Seahorse cellular respiration assay (OCR); format: cell-based, human
Protocol: Identical parallel cultures were established to test for an effect on cytotoxicity via cellular ATP content. […]. Importantly, the 1-hour culture was conducted in the absence of serum (i.e., no serum protein binding) as is standard for the Seahorse Analyzer assay conditions. However, the 24-hour culture was too long for robust cell culture in the absence of serum. Serum was present up to 1 hour before the assay, when cell culture media was exchanged for the standard assay media. Three independent studies were conducted in duplicate.
To assess the potential mitochondrial liabilities of ubrogepant, cellular respiration assays using a Seahorse XFe96 Flux Analyzer were conducted by Cyprotex (Macclesfield, UK). HepG2 cells were incubated with ubrogepant at concentrations ranging from 0.1 – 125 μM for 1 or 24 hours and tested for an effect on cellular respiration as measured by the oxygen consumption rate (OCR). Three independent studies were conducted in duplicate. Importantly, the 1-hour culture was conducted in the absence of serum (i.e., no serum protein binding) as is standard for the Seahorse Analyzer assay conditions. However, the 24-hour culture was too long for robust cell culture in the absence of serum. Serum was present up to 1 hour before the assay, when cell culture media was exchanged for the standard assay media. The measured OCR was corrected for the relative amounts of viable cells that contributed to the measured OCR, removing the possible interpretation of OCR reductions as being due to cell loss.
To assess the potential mitochondrial liabilities of MK-3207, cellular respiration assays using a Seahorse XFe96 Flux Analyzer were conducted by Cyprotex (Macclesfield, UK). HepG2 cells were incubated with MK-3207 at concentrations ranging from 0.01 – 75 μM for 1 or 24 hours and tested for an effect on cellular respiration as measured by the OCR. Three independent studies were conducted in duplicate. Importantly, the 1-hour culture was conducted in the absence of serum (i.e., no serum protein binding) as is standard for the Seahorse Analyzer assay conditions. However, the 24-hour culture was too long for robust cell culture in the absence of serum. Serum was present up to 1 hour before the assay, when cell culture media was exchanged for the standard assay media. Intracellular MK-3207 concentrations were also assessed in identical duplicate HepG2 cultures. The measured OCR was corrected for the relative amounts of viable cells that contributed to the measured OCR, removing the possible interpretation of OCR reductions as being due to cell loss; the process for this was the same as that described above for ubrogepant.

[5] = system: mitochondrial electron transport chain (ETC); experiment: MITOsym/DILIsym fit of OCR data (ETC inhibition parameters); design: species or system human; settings: for DILIsym ETC inhibition constant: MITOsym value × scaling factor of 34.7
Protocol: MITOsym® parameters were then translated to DILIsym® parameters using a scaling factor calculated using classic exemplar compounds that perturb different pathways of mitochondrial respiration (e.g., rotenone for ETC inhibition, FCCP for uncoupling).
The parameter values for ubrogepant were determined by reproducing the cell count-corrected OCR data in MITOsym®, a mechanistic model of mitochondrial function in the in vitro setting. MITOsym parameters were then translated to DILIsym parameters using a scaling factor calculated using classic exemplar compounds that perturb different pathways of mitochondrial respiration (e.g., rotenone for ETC inhibition, FCCP for uncoupling).
Mitochondrial toxicity parameter values for MK-3207 were determined by reproducing the cell count-corrected OCR response to MK-3207 dosing in both MITOsym and DILIsym. The ETC inhibition coefficient from the MITOsym parameters was then translated to a DILIsym parameter using a scaling factor calculated using classic exemplar compounds that perturb different pathways of mitochondrial respiration (e.g., rotenone for ETC inhibition, FCCP for uncoupling), similar to ubrogepant. The maximum inhibition potency from the DILIsym fit was combined with this value in the final parameter set.

[6] = HepG2, 1-hour incubation, no serum
[7] = mixed inhibition model, nonlinear regression
[8] = curve fitting assuming maximum inhibition at higher concentrations is 100%, read-out: MRP3 estimated lowest possible IC50

T1 sequence (O95342 whole entry): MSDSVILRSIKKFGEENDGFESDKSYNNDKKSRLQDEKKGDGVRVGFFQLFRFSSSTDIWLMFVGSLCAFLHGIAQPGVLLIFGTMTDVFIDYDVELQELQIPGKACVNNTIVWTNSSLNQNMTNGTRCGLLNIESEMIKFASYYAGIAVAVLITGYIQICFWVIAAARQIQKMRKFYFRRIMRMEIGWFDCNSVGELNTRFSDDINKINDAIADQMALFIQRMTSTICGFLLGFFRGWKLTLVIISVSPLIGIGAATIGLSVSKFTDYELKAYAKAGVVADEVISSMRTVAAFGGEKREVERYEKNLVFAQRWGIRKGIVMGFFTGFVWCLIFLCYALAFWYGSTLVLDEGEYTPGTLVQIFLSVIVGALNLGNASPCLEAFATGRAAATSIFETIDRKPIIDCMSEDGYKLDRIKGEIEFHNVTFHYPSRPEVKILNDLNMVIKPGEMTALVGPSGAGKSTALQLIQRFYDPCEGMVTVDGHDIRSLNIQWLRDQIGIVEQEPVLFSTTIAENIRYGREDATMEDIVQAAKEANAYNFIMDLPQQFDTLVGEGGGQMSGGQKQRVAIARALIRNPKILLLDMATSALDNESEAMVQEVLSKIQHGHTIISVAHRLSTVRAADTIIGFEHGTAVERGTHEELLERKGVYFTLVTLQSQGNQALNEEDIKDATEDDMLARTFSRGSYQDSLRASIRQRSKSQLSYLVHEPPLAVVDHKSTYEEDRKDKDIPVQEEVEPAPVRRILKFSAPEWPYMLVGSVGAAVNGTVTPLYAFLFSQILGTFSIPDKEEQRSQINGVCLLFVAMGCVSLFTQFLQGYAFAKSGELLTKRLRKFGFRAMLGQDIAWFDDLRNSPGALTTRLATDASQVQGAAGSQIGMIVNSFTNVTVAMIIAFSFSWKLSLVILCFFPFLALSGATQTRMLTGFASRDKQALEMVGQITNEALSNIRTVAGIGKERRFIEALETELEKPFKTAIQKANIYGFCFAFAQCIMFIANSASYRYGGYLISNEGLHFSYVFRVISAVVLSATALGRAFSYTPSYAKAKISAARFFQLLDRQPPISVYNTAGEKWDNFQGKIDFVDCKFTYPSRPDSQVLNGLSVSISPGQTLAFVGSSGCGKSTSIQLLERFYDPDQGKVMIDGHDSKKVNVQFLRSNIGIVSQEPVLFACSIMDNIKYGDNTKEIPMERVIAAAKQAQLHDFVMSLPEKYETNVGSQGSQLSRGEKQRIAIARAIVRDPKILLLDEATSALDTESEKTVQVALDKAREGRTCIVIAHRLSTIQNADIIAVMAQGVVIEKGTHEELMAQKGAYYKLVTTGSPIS
T2 sequence (O15438 whole entry): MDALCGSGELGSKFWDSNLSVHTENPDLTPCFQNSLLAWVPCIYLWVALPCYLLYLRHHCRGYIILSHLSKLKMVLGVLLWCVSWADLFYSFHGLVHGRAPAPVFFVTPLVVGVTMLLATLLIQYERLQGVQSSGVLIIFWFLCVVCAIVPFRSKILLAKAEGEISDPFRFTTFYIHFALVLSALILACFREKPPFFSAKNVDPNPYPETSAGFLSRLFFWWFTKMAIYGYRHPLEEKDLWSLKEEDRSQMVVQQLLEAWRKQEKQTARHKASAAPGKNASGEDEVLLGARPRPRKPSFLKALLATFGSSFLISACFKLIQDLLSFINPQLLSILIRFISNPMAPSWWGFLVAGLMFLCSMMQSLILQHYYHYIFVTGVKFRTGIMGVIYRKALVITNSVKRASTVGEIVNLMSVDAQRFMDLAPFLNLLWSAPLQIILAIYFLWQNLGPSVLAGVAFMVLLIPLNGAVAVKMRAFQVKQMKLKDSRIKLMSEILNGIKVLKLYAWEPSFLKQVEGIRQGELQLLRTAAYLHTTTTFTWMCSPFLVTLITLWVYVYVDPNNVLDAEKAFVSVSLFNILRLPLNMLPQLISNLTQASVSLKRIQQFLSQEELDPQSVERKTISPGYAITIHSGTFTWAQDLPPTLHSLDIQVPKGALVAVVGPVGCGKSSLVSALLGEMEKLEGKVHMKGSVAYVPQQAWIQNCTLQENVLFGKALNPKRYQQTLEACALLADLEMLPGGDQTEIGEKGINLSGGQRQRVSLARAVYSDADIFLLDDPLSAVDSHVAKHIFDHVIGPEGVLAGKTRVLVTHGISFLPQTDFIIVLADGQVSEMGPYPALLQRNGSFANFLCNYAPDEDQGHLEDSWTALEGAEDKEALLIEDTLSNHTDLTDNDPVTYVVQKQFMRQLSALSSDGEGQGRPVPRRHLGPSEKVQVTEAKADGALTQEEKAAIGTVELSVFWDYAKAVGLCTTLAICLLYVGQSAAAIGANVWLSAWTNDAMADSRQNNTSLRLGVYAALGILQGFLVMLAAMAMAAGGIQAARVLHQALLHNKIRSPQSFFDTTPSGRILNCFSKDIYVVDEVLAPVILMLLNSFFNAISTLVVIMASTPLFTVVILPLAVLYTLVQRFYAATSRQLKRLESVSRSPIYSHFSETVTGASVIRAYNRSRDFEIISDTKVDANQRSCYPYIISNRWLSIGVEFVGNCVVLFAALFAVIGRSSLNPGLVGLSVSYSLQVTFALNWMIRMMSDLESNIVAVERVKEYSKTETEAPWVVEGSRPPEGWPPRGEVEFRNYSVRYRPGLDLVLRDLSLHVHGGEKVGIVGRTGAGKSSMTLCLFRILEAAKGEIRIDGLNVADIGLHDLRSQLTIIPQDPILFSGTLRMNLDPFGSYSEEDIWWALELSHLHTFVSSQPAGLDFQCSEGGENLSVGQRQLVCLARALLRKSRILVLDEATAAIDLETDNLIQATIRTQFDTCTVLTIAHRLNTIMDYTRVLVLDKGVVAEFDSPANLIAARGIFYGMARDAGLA

| Structure (SMILES) | Vmax of taurocholate ([2]; inhibitor 0.5 µM) | Vmax of taurocholate ([2]; inhibitor 2.5 µM) | Vmax of taurocholate ([2]; inhibitor 5 µM) | Vmax of taurocholate ([2]; inhibitor 15 µM) | Vmax of taurocholate ([2]; inhibitor 30 µM) | BSEP inhibition type [2] | inhibition of BSEP-mediated probe substrate transport [2] | inhibition of MRP3-mediated probe substrate transport [3] | effect on oxygen consumption rate (OCR) [4, 6] | effect on oxygen consumption rate (OCR) ([4]; HepG2, 24-hour incubation) | alpha (mixed inhibition model) ([2]; mixed inhibition model) | Ki [2, 7] | IC50 [3, 8] | DILIsym ETC inhibition constant [5] | further results |
| --- | --- | --- | --- | --- | --- | --- | --- | --- | --- | --- | --- | --- | --- | --- | --- |
| O=C(CN1C(=O)C2(CCCC2)NC[C@H]1c1cc(F)cc(F)c1)Nc1ccc2c(c1)C[C@@]1(C2)C(=O)Nc2ncccc21 [MK-3207] | 171.9 pmol/mg protein/min | 183.1 pmol/mg protein/min | 174.9 pmol/mg protein/min | 132.5 pmol/mg protein/min | 151.7 pmol/mg protein/min | competitive model is presumed to be the most likely mode of inhibition | inhibited | inhibited | mildly inhibit cellular respiration | mildly inhibit cellular respiration |  |  |  |  | clinical study exposure (mean) ([1]; Phase 2, 900 mg daily): b Phase 2 clinical study exposures based on mean of 60 μM/h at dose of 900 mg daily; original projected daily dose was 80 mg.; Ki ([2]; competitive inhibition model): 7.62 µM; IC50 ([3]; used as basolateral transporter inhibition constant, read-out: MRP3 calculated IC50): 49.9 µM; maximal inhibition value (ETC) ([5]; DILIsym fit of HepG2 OCR data): 0.35; ETC inhibition coefficient ([5]; MITOsym constant translated into DILIsym, 1-hour and 24-hour HepG2 OCR data): 0.347 µM |
| O=C(N[C@@H]1CC[C@@H](c2cccc(F)c2F)CN(CC(F)(F)F)C1=O)N1CCC(n2c(=O)[nH]c3ncccc32)CC1 [Telcagepant] |  | 186.3 pmol/mg protein/min | 208.1 pmol/mg protein/min |  |  | likely to be a mixed BSEP inhibitor | inhibited | inhibited | inhibit the HepG2 OCR in a dose-dependent manner | A similar OCR response | 4.6 | 7.9 µM | ≥ 16.6 µM | 1.74e-05 mol/mL | clinical study exposure (mean) ([1]; Phase 3, 280 mg BID (2 h apart)): a Phase 3 clinical study exposures based on mean of 70 μM/h at dose of 280 mg BID (2 h apart).; Vmax of taurocholate ([2]; inhibitor 10 µM): 77.52 pmol/mg protein/min; Vmax of taurocholate ([2]; inhibitor 20 µM): 119.7 pmol/mg protein/min; IC50 ([2]; vesicular transport, taurocholate, read-out: BSEP estimated IC50): 10.2 µM; BSEP inhibition ([2]; vesicular transport, up to 20 µM): > 50%; inhibition at 20 µM ([3]; human, membrane vesicles with MRP3 (vesicular transport assay), read-out: maximum inhibition at the highest concentration tested, MRP3): < 50%; MITOsym ETC inhibition constant ([5]; fit of 1 hour HepG2 OCR data): 0.5 mM |
| C[C@@H]1[C@H](c2ccccc2)C[C@H](NC(=O)c2cnc3c(c2)C[C@@]2(C3)C(=O)Nc3ncccc32)C(=O)N1CC(F)(F)F [Ubrogepant] | 181.3 pmol/mg protein/min | 175.6 pmol/mg protein/min | 171.3 pmol/mg protein/min | 171.9 pmol/mg protein/min | 172.3 pmol/mg protein/min | likely to be a mixed BSEP inhibitor | inhibited | inhibited | not after a 1-hour incubation | inhibit the HepG2 OCR in a dose-dependent manner | 8.39 | 38.1 µM | ≥ 85.9 µM | 4.72e-07 mol/mL | clinical study exposure ([1]; Phase 3, 100 mg QD): c Phase 3 clinical study exposures based on 2 μM/h at dose of 100 mg QD.; inhibition at 70 µM ([3]; human, membrane vesicles with MRP3 (vesicular transport assay), 70 µM (solubility limit), read-out: maximum inhibition at the highest concentration tested, MRP3): < 50%; MITOsym ETC inhibition constant ([5]; fit of 24-hour HepG2 OCR data): 0.0136 mM |
